The source of these data is article PMC7305236, “The atypical chemokine receptor ACKR3/CXCR7 is a broad-spectrum scavenger for opioid peptides” (Nature Communications, 2020).

Like-named read-outs stand apart in the source and are kept apart here.

Holding throughout (experiment): Figure S2a opioid peptide screen on chemokine receptors
Holding throughout (design): dose or concentration left out as unconfirmed

One test concerns the target T1, CXCR5 (Homo sapiens, UniProt P32302).
T1 construct: expressed in transfected cells
T1 sequence (P32302 1-372): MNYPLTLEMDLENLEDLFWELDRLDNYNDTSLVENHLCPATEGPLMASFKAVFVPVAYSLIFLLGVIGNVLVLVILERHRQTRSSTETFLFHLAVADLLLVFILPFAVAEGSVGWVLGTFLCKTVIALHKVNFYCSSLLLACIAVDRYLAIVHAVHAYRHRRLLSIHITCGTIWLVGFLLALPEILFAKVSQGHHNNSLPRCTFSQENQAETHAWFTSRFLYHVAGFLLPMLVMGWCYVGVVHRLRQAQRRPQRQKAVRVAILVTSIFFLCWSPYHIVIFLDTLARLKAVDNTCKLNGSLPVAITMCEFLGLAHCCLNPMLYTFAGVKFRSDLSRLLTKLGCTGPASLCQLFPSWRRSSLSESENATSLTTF
The format is cell-based.

The next test addresses T2, ACKR2 (Homo sapiens, UniProt O00590).
T2 construct: expressed in transfected cells; host or cells: U87 cells (human glioblastoma)
T2 sequence (O00590 1-384): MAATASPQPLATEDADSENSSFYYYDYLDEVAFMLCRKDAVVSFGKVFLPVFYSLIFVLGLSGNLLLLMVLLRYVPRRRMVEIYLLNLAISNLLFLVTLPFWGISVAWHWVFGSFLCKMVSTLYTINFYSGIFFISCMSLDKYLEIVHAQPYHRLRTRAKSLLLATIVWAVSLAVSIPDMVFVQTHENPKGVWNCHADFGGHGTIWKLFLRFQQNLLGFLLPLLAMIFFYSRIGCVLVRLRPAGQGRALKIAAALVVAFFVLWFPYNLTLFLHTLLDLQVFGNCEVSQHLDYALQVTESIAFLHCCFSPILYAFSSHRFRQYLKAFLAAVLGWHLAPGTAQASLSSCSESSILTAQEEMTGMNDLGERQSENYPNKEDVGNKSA
The format is cell-based.

In the next test the target is T3, CXCR1 (Homo sapiens, UniProt P25024).
T3 construct: expressed in transfected cells
T3 sequence (P25024 1-350): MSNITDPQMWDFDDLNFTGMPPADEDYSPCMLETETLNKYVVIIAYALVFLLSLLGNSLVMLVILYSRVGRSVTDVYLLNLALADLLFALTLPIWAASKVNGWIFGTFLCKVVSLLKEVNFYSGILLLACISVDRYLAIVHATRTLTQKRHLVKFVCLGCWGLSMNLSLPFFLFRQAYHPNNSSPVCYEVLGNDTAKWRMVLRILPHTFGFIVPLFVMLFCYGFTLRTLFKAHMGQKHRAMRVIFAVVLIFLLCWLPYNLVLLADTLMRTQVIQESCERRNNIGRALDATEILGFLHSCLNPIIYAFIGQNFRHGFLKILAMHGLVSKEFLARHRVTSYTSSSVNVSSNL
The class given is cell-based.

For the next test, the target named is T4, CCR3 (Homo sapiens, UniProt P51677).
T4 sequence (P51677 1-355): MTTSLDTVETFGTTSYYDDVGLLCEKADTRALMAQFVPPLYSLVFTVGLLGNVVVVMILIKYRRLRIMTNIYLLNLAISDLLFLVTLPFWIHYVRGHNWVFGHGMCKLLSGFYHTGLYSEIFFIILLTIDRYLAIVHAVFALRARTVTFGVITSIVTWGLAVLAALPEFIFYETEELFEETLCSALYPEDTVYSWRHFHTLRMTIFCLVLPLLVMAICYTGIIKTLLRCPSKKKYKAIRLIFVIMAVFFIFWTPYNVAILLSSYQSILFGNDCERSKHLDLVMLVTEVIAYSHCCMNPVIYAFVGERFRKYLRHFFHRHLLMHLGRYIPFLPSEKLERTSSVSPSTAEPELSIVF
To be noted: read-out: CCR3 activity, ctrl+ = 100, Figure S2a.

The next test has as its target T5, CXCR6 (Homo sapiens, UniProt O00574).
T5 construct: expressed in transfected cells
The format is cell-based.

In another test the target is CCR8 (Homo sapiens, UniProt P51685). To be noted: read-out: CCR8 activity, ctrl+ = 100, Figure S2a.
Another test has as its target T6, CCR4 (Homo sapiens, UniProt P51679).
T6 construct: expressed in transfected cells
T6 sequence (P51679 1-360): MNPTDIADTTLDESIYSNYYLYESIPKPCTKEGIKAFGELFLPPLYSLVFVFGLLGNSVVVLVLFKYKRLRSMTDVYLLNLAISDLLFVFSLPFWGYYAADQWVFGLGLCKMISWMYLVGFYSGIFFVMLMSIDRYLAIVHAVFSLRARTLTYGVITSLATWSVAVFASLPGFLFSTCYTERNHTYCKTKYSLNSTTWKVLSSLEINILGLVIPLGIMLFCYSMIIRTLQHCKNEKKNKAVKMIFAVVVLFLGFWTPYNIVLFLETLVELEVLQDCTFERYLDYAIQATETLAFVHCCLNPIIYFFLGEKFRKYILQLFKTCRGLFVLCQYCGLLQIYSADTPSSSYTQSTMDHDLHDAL
The format is cell-based.

[1] abbreviates: replicate 1, read-out: CXCR5 activity, ctrl+ = 100.
Setting [2] is: replicate 2, read-out: CXCR5 activity, ctrl+ = 100.
The mark [3] stands for this setting: replicate 1, read-out: ACKR2 activity, ctrl+ = 100.
Setting [4] is: replicate 2, read-out: ACKR2 activity, ctrl+ = 100.
[5] abbreviates: replicate 1, read-out: CXCR1 activity, ctrl+ = 100.
Setting [6] is: replicate 2, read-out: CXCR1 activity, ctrl+ = 100.
Where [7] appears, read: replicate 1, read-out: CXCR6 activity, ctrl+ = 100.
Where [8] appears, read: replicate 2, read-out: CXCR6 activity, ctrl+ = 100.
[9] abbreviates: replicate 1, read-out: CCR4 activity, ctrl+ = 100.
Where [10] appears, read: replicate 2, read-out: CCR4 activity, ctrl+ = 100.
[11] abbreviates: replicate 3, read-out: CXCR5 activity, ctrl+ = 100.
Setting [12] is: replicate 3, read-out: ACKR2 activity, ctrl+ = 100.
Where [13] appears, read: replicate 3, read-out: CXCR1 activity, ctrl+ = 100.
Where [14] appears, read: replicate 3, read-out: CXCR6 activity, ctrl+ = 100.
Setting [15] is: replicate 3, read-out: CCR4 activity, ctrl+ = 100.

T5 sequence (O00574 whole entry): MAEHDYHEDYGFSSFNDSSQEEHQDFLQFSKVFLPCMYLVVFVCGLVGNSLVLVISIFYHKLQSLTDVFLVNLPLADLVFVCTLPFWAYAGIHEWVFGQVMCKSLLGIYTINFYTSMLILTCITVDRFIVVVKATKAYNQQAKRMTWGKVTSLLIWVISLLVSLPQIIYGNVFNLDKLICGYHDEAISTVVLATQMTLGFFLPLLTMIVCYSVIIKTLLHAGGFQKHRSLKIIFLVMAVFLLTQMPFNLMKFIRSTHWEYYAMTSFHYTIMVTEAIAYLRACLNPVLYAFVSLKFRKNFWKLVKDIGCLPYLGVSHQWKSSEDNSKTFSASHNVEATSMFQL
Sequence of CCR8 (P51685 whole entry): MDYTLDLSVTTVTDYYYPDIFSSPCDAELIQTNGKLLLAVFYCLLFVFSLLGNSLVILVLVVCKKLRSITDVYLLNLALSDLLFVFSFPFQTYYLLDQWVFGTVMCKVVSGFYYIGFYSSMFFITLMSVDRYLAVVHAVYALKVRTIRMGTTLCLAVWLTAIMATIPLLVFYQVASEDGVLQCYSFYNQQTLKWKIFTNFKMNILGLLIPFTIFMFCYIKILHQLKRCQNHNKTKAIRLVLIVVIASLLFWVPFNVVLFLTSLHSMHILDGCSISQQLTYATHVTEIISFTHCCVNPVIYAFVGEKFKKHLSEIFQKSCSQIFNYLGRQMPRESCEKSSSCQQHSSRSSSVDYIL

Turning to `CC[C@H](C)[C@H](NC(=O)[C@H](CCCNC(=N)N)NC(=O)[C@H](CCCNC(=N)N)NC(=O)[C@H](CC(C)C)NC(=O)[C@H](Cc1ccccc1)NC(=O)CNC(=O)CN)C(=O)N[C@@H](CCCNC(=N)N)C(=O)N1CCC[C@H]1C(=O)N[C@@H](CCCCN)C(=O)N[C@@H](CC(C)C)C(=O)N[C@@H](CCCCN)C(=O)N[C@@H](Cc1c[nH]c2ccccc12)C(=O)N[C@@H](CC(=O)O)C(=O)N[C@@H](CC(N)=O)C(=O)N[C@@H](CCC(N)=O)C(=O)O` [Dynorphin 2-17], the activation on CXCR5 (setting [1]) was -2.49%; on CXCR5 (setting [2]), -3.33%; on ACKR2 (setting [3]) it was 12.5%; at ACKR2 (setting [4]) it was -37.2%; on CXCR1 (setting [5]), 0.572%; at CXCR1 (setting [6]), 0.136%. The activation was 12.7% on CCR3 (replicate 1); -19.1% at CCR3 (replicate 2); -0.523% at CXCR6 (setting [7]); -1.13% on CXCR6 (setting [8]); -6.57% at CCR8 (replicate 1); 0.623% at CCR8 (replicate 2). The activation at CCR4 (setting [9]) was -4.06%; on CCR4 (setting [10]), -1.12%.
On to `CSCC[C@H](NC(=O)[C@H](Cc1ccccc1)NC(=O)CNC(=O)CNC(=O)[C@@H](N)Cc1ccc(O)cc1)C(=O)N[C@@H](CCCNC(=N)N)C(=O)N[C@@H](CCCNC(=N)N)C(=O)N[C@H](C(=O)NCC(=O)N[C@@H](CCCNC(=N)N)C(=O)N1CCC[C@H]1C(=O)N[C@@H](CCC(=O)O)C(=O)N[C@@H](Cc1c[nH]c2ccccc12)C(=O)N[C@@H](Cc1c[nH]c2ccccc12)C(=O)N[C@@H](CCSC)C(=O)N[C@@H](CC(=O)O)C(=O)N[C@@H](Cc1ccc(O)cc1)C(=O)N[C@@H](CCC(N)=O)C(=O)N[C@@H](CCCCN)C(=O)N[C@@H](CCCNC(=N)N)C(=O)N[C@@H](Cc1ccc(O)cc1)C(=O)NCC(=O)O)C(C)C` [BAM22], for which the activation on CXCR5 (setting [1]) was -1.51%; on CXCR5 (setting [2]), -4.48%; on CXCR5 (setting [11]) it was -1.8%; at ACKR2 (setting [3]) it was -3.78%; on ACKR2 (setting [4]), -1.93%; on ACKR2 (setting [12]), -0.478%. For the same molecule, the activation at CXCR1 (setting [5]) is 0.211%; at CXCR1 (setting [6]), 0.0913%; on CXCR1 (setting [13]), -0.539%; at CCR3 (replicate 1), 5.68%; on CCR3 (replicate 2), -4.83%; on CCR3 (replicate 3), 17.9%. The activation on CXCR6 (setting [7]) is -0.237%; at CXCR6 (setting [8]), -0.939%; on CXCR6 (setting [14]) it was -1.21%; at CCR8 (replicate 1), -18.7%; at CCR8 (replicate 2), -21.3%; at CCR8 (replicate 3), -4.1%. The activation on CCR4 (setting [9]) was -0.405%; at CCR4 (setting [10]), -3.44%; at CCR4 (setting [15]) it was 3.02%.
For `CC(C)C[C@H](NC(=O)[C@H](CCCCN)NC(=O)[C@H](CCCN=C(N)N)NC(=O)[C@H](C)NC(=O)[C@H](CO)NC(=O)[C@H](CCCCN)NC(=O)[C@H](CCCN=C(N)N)NC(=O)[C@H](C)NC(=O)CNC(=O)[C@@H](NC(=O)[C@H](Cc1ccccc1)NC(=O)CNC(=O)CNC(=O)[C@@H](N)Cc1ccccc1)[C@@H](C)O)C(=O)N[C@@H](C)C(=O)N[C@@H](CC(N)=O)C(=O)N[C@@H](CCC(N)=O)C(=O)O` [Nociceptin], the activation on CXCR5 (setting [1]) was -2.94%; on CXCR5 (setting [2]), -7.28%; at ACKR2 (setting [3]) it was -19.6%; at ACKR2 (setting [4]), -66.1%; at CXCR1 (setting [5]), -0.193%; on CXCR1 (setting [6]), 0.511%. The activation on CCR3 (replicate 1) is 8.85%; on CCR3 (replicate 2), -14.3%; on CXCR6 (setting [7]), -0.607%; at CXCR6 (setting [8]) it was -0.718%; at CCR8 (replicate 1) it was 27.1%; at CCR8 (replicate 2), -5.76%. For the same molecule, the activation is -2.47% at CCR4 (setting [9]) and -0.825% on CCR4 (setting [10]).
In the case of `CC[C@H](C)[C@H](NC(=O)[C@H](CCCNC(=N)N)NC(=O)[C@H](CCCNC(=N)N)NC(=O)[C@H](CC(C)C)NC(=O)[C@H](Cc1ccccc1)NC(=O)CNC(=O)CNC(=O)[C@@H](N)Cc1ccc(O)cc1)C(=O)N[C@@H](CCCNC(=N)N)C(=O)N1CCC[C@H]1C(=O)N[C@@H](CCCCN)C(=O)N[C@@H](CC(C)C)C(=O)N[C@@H](CCCCN)C(=O)N[C@@H](Cc1c[nH]c2ccccc12)C(=O)N[C@@H](CC(=O)O)C(=O)N[C@@H](CC(N)=O)C(=O)N[C@@H](CCC(N)=O)C(=O)O` [Dynorphin A], the activation was -1.81% at CXCR5 (setting [1]); -4.52% at CXCR5 (setting [2]); 9.35% at CXCR5 (setting [11]); 15.1% on ACKR2 (setting [3]); -26% at ACKR2 (setting [4]); 2.73% on ACKR2 (setting [12]). Further, the activation on CXCR1 (setting [5]) was 0.562%; on CXCR1 (setting [6]), 0.211%; on CXCR1 (setting [13]), 0.227%; at CCR3 (replicate 1), 33.4%; at CCR3 (replicate 2) it was -17%; on CCR3 (replicate 3), 43.5%. The activation on CXCR6 (setting [7]) was -0.0479%; on CXCR6 (setting [8]), -0.578%; at CXCR6 (setting [14]), 0.283%; on CCR8 (replicate 1), -0.0612%; on CCR8 (replicate 2), -35.8%; at CCR8 (replicate 3) it was -0.797%. Also, the activation was -3.55% at CCR4 (setting [9]), 0.0408% at CCR4 (setting [10]) and 5% at CCR4 (setting [15]).
